# According to ChEMBL document CHEMBL5257053, “Discovery of Orally Bioavailable FGFR2/FGFR3 Dual Inhibitors via Structure-Guided Scaffold Repurposing Approach” (ACS Med Chem Lett, 2023):
# Experiments:
# [1] = Permeability in human Caco-2 cells incubated for 120 mins by LC-MS/MS analysis; format: ADME, cell-based; conditions: read-out: permeability
# [2] = Volume of distribution at steady state in cynomolgus monkey at 3 mg/kg, po or 1 mg/kg, iv measured up to 24 hrs; format: ADME, organism-based, Macaca fascicularis; conditions: in vivo
# [3] = Clearance in cynomolgus monkey at 3 mg/kg, po or 1 mg/kg, iv measured up to 24 hrs; format: ADME, organism-based, Macaca fascicularis; conditions: in vivo
# [4] = Half life in Sprague-Dawley rat at 3 mg/kg, po or 1 mg/kg, iv measured up to 24 hrs; format: ADME, organism-based; conditions: in vivo
# Cytochrome P450 3A4 = Cytochrome P450 3A4 (Homo sapiens, UniProt P08684); assay: Inhibition of CYP3A4 (unknown origin); format: ADME
# Cytochrome P450 3A4, sequence (P08684 whole entry, the tested form may be a part): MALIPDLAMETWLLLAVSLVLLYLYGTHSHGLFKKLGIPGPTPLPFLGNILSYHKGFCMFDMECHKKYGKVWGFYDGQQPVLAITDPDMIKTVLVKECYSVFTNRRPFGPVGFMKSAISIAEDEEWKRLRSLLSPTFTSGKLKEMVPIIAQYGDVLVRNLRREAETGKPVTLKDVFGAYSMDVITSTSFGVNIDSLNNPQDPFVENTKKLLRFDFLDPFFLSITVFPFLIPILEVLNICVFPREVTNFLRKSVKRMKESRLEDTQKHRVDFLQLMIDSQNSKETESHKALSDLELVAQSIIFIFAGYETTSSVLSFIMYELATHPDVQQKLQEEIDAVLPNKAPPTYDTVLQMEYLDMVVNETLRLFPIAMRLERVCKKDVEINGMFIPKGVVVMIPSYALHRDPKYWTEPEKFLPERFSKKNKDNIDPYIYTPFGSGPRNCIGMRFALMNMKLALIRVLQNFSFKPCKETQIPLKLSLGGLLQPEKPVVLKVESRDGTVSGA
# [5] = target: Fibroblast growth factor receptor 4 (Homo sapiens, UniProt P22455); assay: Inhibition of recombinant human FGFR4 (460 to 802 residues) using biotin-EQEDEPEGDYFEWLE-amide as substrate preincubated for 5 to 10 mins followed by substrate addition and measured after 1 hr in presence of ATP by HTRF assay
# Cytochrome P450 2C9 = Cytochrome P450 2C9 (Homo sapiens, UniProt P11712); assay: Inhibition of CYP2C9 (unknown origin); format: ADME
# Cytochrome P450 2C9, sequence (P11712 whole entry): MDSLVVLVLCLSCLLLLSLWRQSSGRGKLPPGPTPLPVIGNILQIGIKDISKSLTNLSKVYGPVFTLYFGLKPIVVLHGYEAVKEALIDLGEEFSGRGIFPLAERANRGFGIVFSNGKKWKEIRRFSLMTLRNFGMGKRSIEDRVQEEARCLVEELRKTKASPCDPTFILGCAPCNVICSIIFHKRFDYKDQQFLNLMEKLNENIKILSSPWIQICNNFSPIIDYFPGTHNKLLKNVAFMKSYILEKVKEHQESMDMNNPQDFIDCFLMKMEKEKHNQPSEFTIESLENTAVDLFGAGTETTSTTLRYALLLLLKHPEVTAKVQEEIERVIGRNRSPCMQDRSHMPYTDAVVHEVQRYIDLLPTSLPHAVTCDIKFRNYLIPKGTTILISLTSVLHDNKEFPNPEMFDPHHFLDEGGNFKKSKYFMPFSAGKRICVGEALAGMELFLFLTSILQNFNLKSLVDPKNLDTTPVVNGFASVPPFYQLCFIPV
# Cytochrome P450 1A2 = target: T1, Cytochrome P450 1A2 (Homo sapiens, UniProt P05177); assay: Inhibition of CYP1A2 (unknown origin); format: ADME
# T1 sequence (P05177 whole entry): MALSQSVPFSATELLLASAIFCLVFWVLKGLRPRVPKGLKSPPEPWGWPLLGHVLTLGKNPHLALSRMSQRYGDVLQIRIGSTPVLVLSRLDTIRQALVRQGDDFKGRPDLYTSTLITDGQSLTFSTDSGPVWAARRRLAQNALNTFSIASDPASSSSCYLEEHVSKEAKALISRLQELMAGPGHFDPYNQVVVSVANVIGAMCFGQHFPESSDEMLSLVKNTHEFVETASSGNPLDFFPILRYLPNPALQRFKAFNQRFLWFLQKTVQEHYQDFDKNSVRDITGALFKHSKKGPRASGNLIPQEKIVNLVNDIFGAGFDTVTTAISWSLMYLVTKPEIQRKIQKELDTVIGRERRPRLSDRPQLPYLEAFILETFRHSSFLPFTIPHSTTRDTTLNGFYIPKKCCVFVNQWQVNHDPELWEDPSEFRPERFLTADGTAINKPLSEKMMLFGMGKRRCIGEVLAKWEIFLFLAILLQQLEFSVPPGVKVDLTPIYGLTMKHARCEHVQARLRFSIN
# [6] = target: Fibroblast growth factor receptor 3 (Mus musculus, UniProt Q61851); assay: Inhibition of FGFR3 phosphorylation in mouse BaF3 cells incubated for 2 hrs; format: cell-based
# Fibroblast growth factor receptor 3, sequence (Q61851 whole entry): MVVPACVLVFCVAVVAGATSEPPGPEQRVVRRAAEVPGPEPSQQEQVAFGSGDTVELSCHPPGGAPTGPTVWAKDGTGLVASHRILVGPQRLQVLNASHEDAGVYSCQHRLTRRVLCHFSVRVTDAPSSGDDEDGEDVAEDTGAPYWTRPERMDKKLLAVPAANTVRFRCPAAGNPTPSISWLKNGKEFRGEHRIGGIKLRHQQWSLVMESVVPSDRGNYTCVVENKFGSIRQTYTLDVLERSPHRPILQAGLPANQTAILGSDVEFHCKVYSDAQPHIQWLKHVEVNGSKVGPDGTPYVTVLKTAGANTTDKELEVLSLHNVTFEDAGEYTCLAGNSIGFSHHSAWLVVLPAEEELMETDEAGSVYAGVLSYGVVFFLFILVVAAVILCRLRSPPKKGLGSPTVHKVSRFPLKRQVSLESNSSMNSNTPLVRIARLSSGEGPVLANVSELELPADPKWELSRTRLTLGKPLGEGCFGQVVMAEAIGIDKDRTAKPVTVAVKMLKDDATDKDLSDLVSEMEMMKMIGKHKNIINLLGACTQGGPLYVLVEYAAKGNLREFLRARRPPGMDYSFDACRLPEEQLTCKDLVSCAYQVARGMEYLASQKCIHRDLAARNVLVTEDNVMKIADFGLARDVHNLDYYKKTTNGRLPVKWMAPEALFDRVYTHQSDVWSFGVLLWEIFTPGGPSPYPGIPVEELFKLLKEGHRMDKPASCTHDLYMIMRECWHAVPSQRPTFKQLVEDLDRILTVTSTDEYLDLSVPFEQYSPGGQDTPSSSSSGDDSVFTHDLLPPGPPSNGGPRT
# [7] = Protein binding in human plasma assessed as free fraction after 2 hrs by equilibrium dialysis method; format: ADME, cell-free
# [8] = Oral bioavailability in Sprague-Dawley rat at 3 mg/kg measured up to 24 hrs; format: ADME, organism-based; conditions: in vivo
# [9] = Cmax in Sprague-Dawley rat at 3 mg/kg, po measured up to 24 hrs; format: ADME, organism-based; set-up: dose 3 mg/kg, time < 24 hrs, route po; conditions: in vivo
# hERG (KCNH2) = hERG (KCNH2) (Homo sapiens, UniProt Q12809); assay: Inhibition of human ERG at 10 uM relative to control; format: toxicity
# [10] = target: T2, Fibroblast growth factor receptor 2 (Homo sapiens, UniProt P21802); assay: Inhibition of recombinant human FGFR2 (400 to 821 residues) using biotin-EQEDEPEGDYFEWLE-amide as substrate preincubated for 5 to 10 mins followed by substrate addition and measured after 1 hr in presence of ATP by HTRF assay
# T2 sequence (P21802 whole entry, the tested form may be a part): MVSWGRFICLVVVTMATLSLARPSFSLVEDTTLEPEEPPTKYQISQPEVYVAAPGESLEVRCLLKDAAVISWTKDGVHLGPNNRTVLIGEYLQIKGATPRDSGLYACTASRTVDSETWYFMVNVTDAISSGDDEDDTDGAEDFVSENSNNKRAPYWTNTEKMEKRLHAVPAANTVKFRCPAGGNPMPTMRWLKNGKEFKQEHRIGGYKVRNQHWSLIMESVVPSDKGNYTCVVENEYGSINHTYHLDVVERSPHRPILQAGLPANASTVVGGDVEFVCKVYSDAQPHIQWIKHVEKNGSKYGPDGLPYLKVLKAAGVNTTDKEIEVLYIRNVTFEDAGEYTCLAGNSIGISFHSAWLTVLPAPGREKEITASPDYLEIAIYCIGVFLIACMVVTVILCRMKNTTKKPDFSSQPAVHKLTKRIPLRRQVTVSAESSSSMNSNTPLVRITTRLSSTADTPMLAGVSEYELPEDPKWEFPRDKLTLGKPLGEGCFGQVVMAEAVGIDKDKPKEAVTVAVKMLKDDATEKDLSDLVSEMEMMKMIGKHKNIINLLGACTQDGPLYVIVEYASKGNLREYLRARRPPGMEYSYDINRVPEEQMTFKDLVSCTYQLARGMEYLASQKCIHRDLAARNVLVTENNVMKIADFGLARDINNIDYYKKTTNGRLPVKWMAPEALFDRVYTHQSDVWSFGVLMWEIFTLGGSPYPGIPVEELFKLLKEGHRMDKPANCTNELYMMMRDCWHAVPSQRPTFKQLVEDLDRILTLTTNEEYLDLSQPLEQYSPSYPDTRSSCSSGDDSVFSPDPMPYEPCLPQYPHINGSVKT
# [11] = Solubility of compound in fasted state stimulated intestinal fluid; format: ADME; conditions: fasted state simulated intestinal fluid
# [12] = Volume of distribution at steady state in Sprague-Dawley rat at 3 mg/kg, po or 1 mg/kg, iv measured up to 24 hrs; format: ADME, organism-based; conditions: in vivo
# [13] = target: T2, Fibroblast growth factor receptor 2; assay: Inhibition of FGFR2 in human KATOIII cells incubated for 1 hr; format: cell-based, KATO III stomach cancer cell line
# [14] = AUCinfinity in cynomolgus monkey at 3 mg/kg, po measured up to 24 hrs; format: ADME, organism-based, Macaca fascicularis; set-up: time < 24 hrs, dose 3 mg/kg, route po; conditions: in vivo
# [15] = target: Vascular endothelial growth factor receptor 2 (Homo sapiens, UniProt P35968); assay: Inhibition of KDR (unknown origin) using peptide substrate incubated for 90 mins in presence of ATP by HTRF method
# Vascular endothelial growth factor receptor 2, sequence (P35968 whole entry): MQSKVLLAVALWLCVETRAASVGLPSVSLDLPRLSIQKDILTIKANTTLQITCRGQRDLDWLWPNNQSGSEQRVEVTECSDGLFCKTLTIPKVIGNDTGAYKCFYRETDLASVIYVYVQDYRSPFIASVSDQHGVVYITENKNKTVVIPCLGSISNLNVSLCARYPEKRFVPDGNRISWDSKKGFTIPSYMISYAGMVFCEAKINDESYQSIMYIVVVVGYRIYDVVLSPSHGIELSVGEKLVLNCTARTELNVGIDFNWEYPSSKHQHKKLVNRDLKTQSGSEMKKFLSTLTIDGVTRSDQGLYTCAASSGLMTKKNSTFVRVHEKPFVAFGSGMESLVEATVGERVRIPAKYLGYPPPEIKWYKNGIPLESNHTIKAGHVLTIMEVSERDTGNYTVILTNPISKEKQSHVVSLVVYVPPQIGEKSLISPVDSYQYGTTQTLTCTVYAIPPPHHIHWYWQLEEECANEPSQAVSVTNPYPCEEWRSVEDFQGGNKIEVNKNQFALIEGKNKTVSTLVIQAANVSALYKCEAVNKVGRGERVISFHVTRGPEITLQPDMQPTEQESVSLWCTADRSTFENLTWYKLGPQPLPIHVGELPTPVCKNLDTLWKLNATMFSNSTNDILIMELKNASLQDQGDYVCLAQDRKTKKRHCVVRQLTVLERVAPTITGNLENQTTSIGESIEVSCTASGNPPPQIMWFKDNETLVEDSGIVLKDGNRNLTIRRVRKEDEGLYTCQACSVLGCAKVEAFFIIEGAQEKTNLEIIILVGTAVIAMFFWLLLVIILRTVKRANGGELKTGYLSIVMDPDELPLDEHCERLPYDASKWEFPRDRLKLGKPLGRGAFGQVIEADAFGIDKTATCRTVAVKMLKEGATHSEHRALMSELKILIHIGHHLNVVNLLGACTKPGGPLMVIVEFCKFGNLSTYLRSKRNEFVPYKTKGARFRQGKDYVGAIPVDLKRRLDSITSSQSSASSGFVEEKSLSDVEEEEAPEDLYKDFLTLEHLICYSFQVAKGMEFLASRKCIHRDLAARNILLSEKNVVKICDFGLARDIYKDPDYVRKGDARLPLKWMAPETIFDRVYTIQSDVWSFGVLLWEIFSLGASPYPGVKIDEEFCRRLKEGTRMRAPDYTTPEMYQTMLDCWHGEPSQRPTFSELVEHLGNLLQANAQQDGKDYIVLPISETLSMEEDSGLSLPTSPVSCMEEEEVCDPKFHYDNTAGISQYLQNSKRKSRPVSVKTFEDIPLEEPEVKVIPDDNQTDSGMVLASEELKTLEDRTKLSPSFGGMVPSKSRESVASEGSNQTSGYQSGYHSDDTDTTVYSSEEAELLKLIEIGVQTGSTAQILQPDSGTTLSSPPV
# [16] = Solubility of compound in stimulated gastric fluid; format: ADME; conditions: simulated gastric fluid
# [17] = Half life in cynomolgus monkey at 3 mg/kg, po or 1 mg/kg, iv measured up to 24 hrs; format: ADME, organism-based, Macaca fascicularis; conditions: in vivo
# [18] = Drug concentration in NSG mouse plasma at 30 mg/kg, po measured after 2 hrs; format: ADME, organism-based
# [19] = Oral bioavailability in cynomolgus monkey at 3 mg/kg measured up to 24 hrs; format: ADME, organism-based, Macaca fascicularis; conditions: in vivo
# Activin receptor type-1 = target: T3, Activin receptor type-1 (Homo sapiens, UniProt Q04771); assay: Inhibition of recombinant human ALK2 (147 to end residues) expressed in Sf9 infected baculovirus expression system using TRF0130 as substrate incubated for 3 hrs in presence of […]
# T3 sequence (Q04771 whole entry): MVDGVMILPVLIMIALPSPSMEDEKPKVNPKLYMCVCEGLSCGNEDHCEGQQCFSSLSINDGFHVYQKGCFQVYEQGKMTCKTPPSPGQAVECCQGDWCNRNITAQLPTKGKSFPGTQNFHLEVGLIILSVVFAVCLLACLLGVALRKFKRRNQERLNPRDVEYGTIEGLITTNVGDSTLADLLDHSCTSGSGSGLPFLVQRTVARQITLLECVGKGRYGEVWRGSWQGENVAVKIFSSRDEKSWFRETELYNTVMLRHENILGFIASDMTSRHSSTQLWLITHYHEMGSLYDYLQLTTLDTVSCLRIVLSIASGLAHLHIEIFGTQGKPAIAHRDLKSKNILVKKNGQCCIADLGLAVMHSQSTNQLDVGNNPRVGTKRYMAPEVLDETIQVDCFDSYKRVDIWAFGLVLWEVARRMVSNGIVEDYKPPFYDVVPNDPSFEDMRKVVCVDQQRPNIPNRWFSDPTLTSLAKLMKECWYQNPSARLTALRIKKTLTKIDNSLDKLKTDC
# Cytochrome P450 2D6 = Cytochrome P450 2D6 (Homo sapiens, UniProt P10635); assay: Inhibition of CYP2D6 (unknown origin); format: ADME
# Cytochrome P450 2D6, sequence (P10635 whole entry): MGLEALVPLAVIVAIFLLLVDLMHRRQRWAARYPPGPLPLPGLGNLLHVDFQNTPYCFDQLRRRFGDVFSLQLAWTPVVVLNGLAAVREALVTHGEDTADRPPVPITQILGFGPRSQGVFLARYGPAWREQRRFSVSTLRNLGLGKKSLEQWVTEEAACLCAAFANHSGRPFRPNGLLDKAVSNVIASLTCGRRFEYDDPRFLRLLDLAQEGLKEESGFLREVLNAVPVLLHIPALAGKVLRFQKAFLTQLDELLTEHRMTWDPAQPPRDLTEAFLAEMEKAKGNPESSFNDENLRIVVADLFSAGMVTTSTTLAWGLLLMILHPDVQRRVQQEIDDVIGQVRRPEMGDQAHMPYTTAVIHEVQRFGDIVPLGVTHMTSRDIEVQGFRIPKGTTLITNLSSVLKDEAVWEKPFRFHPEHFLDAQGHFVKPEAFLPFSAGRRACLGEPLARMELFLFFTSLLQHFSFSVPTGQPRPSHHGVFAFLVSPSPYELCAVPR
# Cytochrome P450 2B6 = target: T4, Cytochrome P450 2B6 (Homo sapiens, UniProt P20813); assay: Inhibition of CYP2B6 (unknown origin); format: ADME
# T4 sequence (P20813 whole entry): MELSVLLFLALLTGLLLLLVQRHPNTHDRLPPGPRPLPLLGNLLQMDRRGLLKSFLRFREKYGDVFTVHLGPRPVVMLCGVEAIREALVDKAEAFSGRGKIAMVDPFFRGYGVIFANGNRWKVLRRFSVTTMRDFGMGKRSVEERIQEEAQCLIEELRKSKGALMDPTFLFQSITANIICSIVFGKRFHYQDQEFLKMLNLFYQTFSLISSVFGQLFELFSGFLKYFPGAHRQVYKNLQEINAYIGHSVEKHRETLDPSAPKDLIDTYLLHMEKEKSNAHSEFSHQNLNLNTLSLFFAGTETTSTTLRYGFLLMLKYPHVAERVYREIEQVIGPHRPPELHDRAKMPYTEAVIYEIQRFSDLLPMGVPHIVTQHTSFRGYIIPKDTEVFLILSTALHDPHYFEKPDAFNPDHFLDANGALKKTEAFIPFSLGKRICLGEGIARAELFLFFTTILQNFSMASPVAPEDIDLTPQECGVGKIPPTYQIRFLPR
# [20] = AUCinfinity in Sprague-Dawley rat at 3 mg/kg, po measured up to 24 hrs; format: ADME, organism-based; set-up: dose 3 mg/kg, time < 24 hrs, route po; conditions: in vivo
# [21] = Metabolic stability in human liver microsomes assessed as intrinsic clearance at 1 uM preincubated for 2 mins followed by NADPH addition and measured upto 30 mins by LC-MS/MS analysis; format: ADME, Microsome; conditions: time < 32 min, read-out: CLH (converted)
# [22] = Clearance in Sprague-Dawley rat at 3 mg/kg, po or 1 mg/kg, iv measured up to 24 hrs; format: ADME, organism-based; conditions: in vivo
# [23] = Cmax in cynomolgus monkey at 3 mg/kg, po measured up to 24 hrs; format: ADME, organism-based, Macaca fascicularis; set-up: time < 24 hrs, dose 3 mg/kg, route po; conditions: in vivo
compound,measurement,setting,value
CN1C[C@@H]2CC[C@H](C1=O)N2c1ncc2[nH]nc(-c3cnn(C4CCC4)c3)c2n1,Papp at 2 h,[1],4 ×10⁻⁶ cm/s
same,Vdss,[2],0.66 L/kg
same,CL,[3],12 mL/min/kg
same,half-life,[4],6.6 h
same,IC50,Cytochrome P450 3A4,> 10000 nM
same,IC50,[5],157 nM
same,IC50,Cytochrome P450 2C9,> 10000 nM
same,IC50,Cytochrome P450 1A2,> 10000 nM
same,IC50,[6],16 nM
same,fraction unbound at 2 h,[7],0.11
same,bioavailability,[8],100%
same,Cmax,[9],5550 nM
same,inhibition at 10 µM,hERG (KCNH2),< 10%
same,IC50,[10],1.8 nM
same,solubility,[11],557 µg/mL
same,Vdss,[12],2.6 L/kg
same,IC50,[13],24 nM
same,AUC(0-inf),[14],2.21 µM·h
same,IC50,[15],184 nM
same,solubility,[16],> 400 µg/mL
same,half-life,[17],3.2 h
same,concentration at 2 h,[18],760 nM
same,bioavailability,[19],20%
same,IC50,Activin receptor type-1,477 nM
same,IC50,Cytochrome P450 2D6,> 10000 nM
same,IC50,Cytochrome P450 2B6,> 10000 nM
same,AUC(0-inf),[20],5.82 µM·h
same,CLint scaled at 1 µM,[21],16.7 mL/min/kg
same,CL,[22],23.3 mL/min/kg
same,Cmax,[23],825 nM
